Measurements taken from US20250011484A1, “METHODS FOR PREPARING METALLOCENE COMPOUNDS” (Chevron Phillips Chemical Company LP, priority 2023, published 2025).

Columns and labels:
[1] = Solubility of metallocenes in 1-decene; assay type: physicochemical; details: ambient temperature (21° C.), visual inspection for solids or haze
Procedure: Additional portions of the desired metallocenes were then added in increments of 3-4 mg and the mixture was allowed to stir for 30 minutes after each addition at ambient temperature (21° C.). The resulting mixtures were visually inspected for solids or significant haze. Metallocenes were considered soluble if significant haze or solids were not observed.

[2] = Ethylene/1-hexene polymerization with metallocene catalyst compositions
Procedure: Polymerization experiments employing catalyst compositions comprising MET-A, MET-B, MET-C, MET-D, MET-E, and MET-F were conducted as follows. Unless otherwise indicated, the polymerization experiments used in the following examples were conducted for […] in a one-gallon (3.8 L) stainless-steel autoclave reactor containing isobutane as diluent. A syringe was charged with 250 mg solid activator-support, 2 mL hexane, 0.5 mL of 1M TIBA (in hexane) and 2.0 mg metallocene (MET-A, MET-B, MET-C, MET-D, MET-E, or MET-F, as noted in Tables III and IV) in that order. The slurry was charged to the reactor under an isobutane purge. The reactor was sealed, charged with 2 L of isobutane, and heated to 80° C. Ethylene was charged to the reactor and fed on demand to maintain the target pressure of 320 psig (2.2 MPa). The reactor was maintained at the target temperature throughout the experiment by an automated heating-cooling system. After venting of the reactor, purging, and cooling, the resulting polymer product was dried under reduced pressure. For Examples 40-41, the polymerization temperature was 90° C., and ethylene pressure was maintained at 390 psig ethylene, with a 1-hexene feed ratio of 20 wt. % vs. ethylene.

[3] = Metallocene-catalyzed oligomerization of 1-decene; details: 1-decene 675 g, 110° C., 1 hour, 5 mg metallocene, CTSO, TIBA, hydrogen
Procedure: Metallocene-catalyzed oligomerizations were performed using MET-A and MET-D as follows. Generally, 1-decene was oligomerized to an oligomer product of dimers, trimers, and tetramers in the presence of MET-A or MET-D, as noted in Table II below. For Examples 8-9, a 1-gallon batch reactor was charged with 675 g of 1-decene. A syringe was charged with CTSO (0.750 g), TIBA (1.3 mL of a 1.0 M hexane solution), and metallocene (5 mg). The chemically treated solid oxide (CTSO) was a fluorided silica-coated alumina (60:40 alumina:silica by weight) containing 4 wt. % F and having a d50 average particle size of 35 microns, a BET surface area of 450 m^2/g, and a pore volume of 1.1 mL/g. The catalyst mixture was shaken to mix and was then charged to the reactor under a nitrogen purge. The reactor was heated to 110° C. while stirring at 600-900 rpm. […]
The reaction mixture was then filtered and analyzed by gas chromatography to determine the yield of oligomer product formed in the reaction mixture, and to determine the relative amount of certain oligomers within the oligomer product (e.g., the trimer:tetramer weight ratio). […]
The distribution of olefin end groups was determined using ^1H NMR on a Bruker 300 MHz NMR. Spectra were recorded in CDCl3 and are reported relative to SiMe4 as determined by reference to the residual ^1H solvent peak. […]

Row | SMILES | Solubility [1] | Support Activity ([2]; 1-hexene 7.5 g, 80° C., 320 psig, 30 min, isobutane, TIBA) | Support Activity ([2]; 1-hexene 12 g, 80° C., 320 psig, 30 min, isobutane, TIBA) | Support Activity ([2]; 1-hexene 17.5 g, 80° C., 320 psig, 30 min, isobutane, TIBA) | Support Activity ([2]; 1-hexene 30 g, 80° C., 320 psig, 30 min, isobutane, TIBA) | Support Activity ([2]; Table IV, 1-hexene 49 g, 90° C., 390 psig ethylene, 1-hexene feed ratio 20 wt. %) | Activity [3] | Support Activity ([2]; Table IV, 1-hexene 51 g, 90° C., 390 psig ethylene, 1-hexene feed ratio 20 wt. %)
1 | Fc1c(F)c(F)c(C[c-]2ccc3ccccc32)c(F)c1F.[Cl-].[Cl-].[Zr+4].c1cc[cH-]c1 (stereo not drawn) [MET-A] | <0.1 wt. % | 1,920 g/(g*h) | 1,776 g/(g*h) | 1,872 g/(g*h) | 2,144 g/(g*h) | 2937 g/g/h | 75,060 g/(g*h) | 
2 | CCCC[c-]1cccc1.Fc1c(F)c(F)c(C[c-]2ccc3ccccc32)c(F)c1F.[Cl-].[Cl-].[Zr+4] (stereo not drawn) [MET-G] | 0.4 wt. % |  |  |  |  |  |  | 1392 g/g/h
